Assay results: patent publication EP3409787A1, “TWO SNPS (SINGLE NUCLEOTIDE POLYMORPHISMS) IN THE SEQUENCE OF THE BETA, BETA-CAROTENE 15,15 DIOXYGENASE GENE AND THEIR USE” (DSM IP Assets B.V., priority 2017, dated 2018)

Experiment: Supplementation study: Total Body Stores of vitamin A (TBS) by isotope dilution with [13C10] retinyl acetate
Type: in vivo, human subjects
Details: 7 mg beta-carotene daily, 54 days, humans
Excerpt: The person skilled in art knows how to determine the Total Body Stores (TBS) of vitamin A, e.g. by determining the [^13C10] retinyl acetate dose after a sufficient period (circa 3 days) of isotope dilution with endogenous pools.
The study underlying the present invention analyzed inter alia the Total Body Store of vitamin A (TBS) using an isotope dilution method and [^13C10] retinol concentrations, and determined the effect of the rs7501331 or rs6564851 SNPs on BCO1 enzyme activity. To enable the analysis of SNPs on TBS, stepwise multiple regression was performed using the Akaike Information Criterion (AIC) to evaluate the covariates dietary intake of retinol, provitamin A carotenoids and retinol equivalents, age, BMI and body fat. The most significant covariant used for the selective model to analyze the SNP and TBS interaction was dietary retinol equivalent, with an AIC of 276.5. Thus, the final model tested the effects of the rs7501331 or rs6564851 SNPs on TBS at both baseline and after 54 days of supplementation accounting for dietary retinol equivalent as the only co-variant in the analysis.
The study was a randomized, single blind supplementation design combined with retrospective genotyping to test three beta-carotene formulations (7mg β-carotene/day) for a period of 8 weeks. […] On day 1 and 57 of each supplementation period, a fasting blood sample was taken before the oral administration of 2 mg of [^13C10] β-carotene and 0.4 mg of [^13C10] retinyl acetate as part of a test breakfast meal. Further blood samples were taken at 2, 4, 6, 8, 10 and 12 hours post-dose. For the first formulation (BetaTab 20%S) single fasting blood samples were also taken at day 2, 3, 4, 8, 10, 22, 36 and day 57 of the 8 week supplementation period followed by fasting blood samples at day 58, 59, 60, 64, 66, 78, 92 and 113 during the wash-out period. […] However, overall body retinol homeostasis was determined using supplement 1 (BetaTab 20% S).

CC1=C(/C=C/C(C)=C/C=C/C(C)=C/C=C/C=C(C)/C=C/C=C(C)/C=C/C2=C(C)CCCC2(C)C)C(C)(C)CCC1 [beta-carotene]
effect of rs7501331 (A379V) SNP / dominant T variant on TBS values after supplementation: can overcome | effect of the rs6564851 SNPs on TBS after supplementation: does not disappear | effect of rs7501331 (A379V) SNP / dominant T variant on TBS values after supplementation (listed as ß-carotene): disappeared
